From ChEMBL document CHEMBL3588838, “A full conformational characterization of antiandrogen cortexolone-17-propionate and related compounds through theoretical calculations and nuclear magnetic resonance spectroscopy” (Medchemcomm, 2014)
The source made the active and inactive calls. No cut-off for these calls is given here.

Legend:
Syrian golden hamster [1] = assay: Antiandrogenic activity in female Syrian golden hamsters assessed as inhibition of testosterone propionate-induced flank organ enlargement at 400 ug per animal, topically relative to untreated control; type: functional, Mesocricetus auratus
Plasma = assay: Drug metabolism in rat plasma assessed as cortexolone-21-propionate formation after up to 8 hrs by HPLC analysis in presence of 50 ug/ml dichlofvos; type: ADME, cell-free
Syrian golden hamster [2] = assay: Antiandrogenic activity in female Syrian golden hamsters assessed as inhibition of testosterone propionate-induced flank organ enlargement at 100 ug per animal, topically relative to untreated control; type: functional, Mesocricetus auratus
Syrian golden hamster [3] = assay: Antiandrogenic activity in female Syrian golden hamsters assessed as inhibition of testosterone propionate-induced flank organ enlargement at 200 ug per animal, topically relative to untreated control; type: functional, Mesocricetus auratus
[4] = target: Steroid 5-alpha-reductase (Homo sapiens) (UniProt P18405+P31213+Q9H8P0); assay: Inhibition of 5alpha-reductase in human epidermis assessed as inhibition of [14C]testosterone to DHT after 24 hrs; type: protein assay
Steroid 5-alpha-reductase (Homo sapiens), sequence (P18405 whole entry, looked up): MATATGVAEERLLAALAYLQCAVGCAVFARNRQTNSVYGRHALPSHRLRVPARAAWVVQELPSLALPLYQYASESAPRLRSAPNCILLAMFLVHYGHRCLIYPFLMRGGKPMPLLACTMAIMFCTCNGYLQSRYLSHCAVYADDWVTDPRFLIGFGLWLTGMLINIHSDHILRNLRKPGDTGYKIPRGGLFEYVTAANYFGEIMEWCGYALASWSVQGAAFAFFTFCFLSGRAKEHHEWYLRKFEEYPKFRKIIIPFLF
Steroid 5-alpha-reductase (Homo sapiens), sequence (P31213 whole entry, looked up): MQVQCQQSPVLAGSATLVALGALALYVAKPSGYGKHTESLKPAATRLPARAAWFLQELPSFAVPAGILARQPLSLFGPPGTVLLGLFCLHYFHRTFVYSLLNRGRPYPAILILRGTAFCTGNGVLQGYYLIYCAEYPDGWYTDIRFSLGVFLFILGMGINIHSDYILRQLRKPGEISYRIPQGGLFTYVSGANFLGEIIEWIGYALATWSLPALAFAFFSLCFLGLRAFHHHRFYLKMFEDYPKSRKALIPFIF
Steroid 5-alpha-reductase (Homo sapiens), sequence (Q9H8P0 whole entry, looked up): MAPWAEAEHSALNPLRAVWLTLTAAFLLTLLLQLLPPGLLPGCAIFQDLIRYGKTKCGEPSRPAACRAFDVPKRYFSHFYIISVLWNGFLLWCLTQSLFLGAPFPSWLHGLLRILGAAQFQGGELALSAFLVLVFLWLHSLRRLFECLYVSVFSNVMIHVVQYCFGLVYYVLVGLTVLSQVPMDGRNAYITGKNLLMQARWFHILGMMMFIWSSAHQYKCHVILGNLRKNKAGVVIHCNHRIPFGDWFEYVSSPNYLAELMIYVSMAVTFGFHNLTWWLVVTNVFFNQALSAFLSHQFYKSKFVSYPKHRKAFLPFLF

Androgen receptor = target: T1, Androgen receptor (Homo sapiens, UniProt P10275); assay: Displacement of [3H]methyltrienolone from androgen receptor in human prostate cancer cells; type: cell-based, Cancer cell lines
T1 sequence (P10275 whole entry): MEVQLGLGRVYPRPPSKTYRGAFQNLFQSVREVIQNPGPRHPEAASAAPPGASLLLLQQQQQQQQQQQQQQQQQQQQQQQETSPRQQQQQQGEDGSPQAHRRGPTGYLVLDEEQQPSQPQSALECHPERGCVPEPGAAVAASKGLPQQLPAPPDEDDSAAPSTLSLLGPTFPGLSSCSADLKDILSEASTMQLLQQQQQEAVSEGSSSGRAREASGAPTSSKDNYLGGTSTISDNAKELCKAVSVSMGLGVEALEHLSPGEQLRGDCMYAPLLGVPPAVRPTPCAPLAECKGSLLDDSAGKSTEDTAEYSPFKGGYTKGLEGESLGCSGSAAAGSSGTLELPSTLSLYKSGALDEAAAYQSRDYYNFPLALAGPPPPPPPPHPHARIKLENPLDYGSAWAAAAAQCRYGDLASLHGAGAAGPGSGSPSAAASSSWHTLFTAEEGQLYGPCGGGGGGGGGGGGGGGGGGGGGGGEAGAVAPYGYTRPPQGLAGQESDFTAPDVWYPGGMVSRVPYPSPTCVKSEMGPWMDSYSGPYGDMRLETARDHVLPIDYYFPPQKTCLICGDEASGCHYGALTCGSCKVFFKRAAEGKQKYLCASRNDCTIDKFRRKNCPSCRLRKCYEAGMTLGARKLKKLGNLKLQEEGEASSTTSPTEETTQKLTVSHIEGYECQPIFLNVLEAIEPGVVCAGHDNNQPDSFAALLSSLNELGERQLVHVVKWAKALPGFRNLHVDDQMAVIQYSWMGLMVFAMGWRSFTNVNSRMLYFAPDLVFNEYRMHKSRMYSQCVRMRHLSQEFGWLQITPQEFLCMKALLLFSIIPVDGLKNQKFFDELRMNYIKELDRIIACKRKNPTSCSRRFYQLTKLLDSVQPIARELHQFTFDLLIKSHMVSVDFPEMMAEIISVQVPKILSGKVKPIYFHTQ

Rattus norvegicus [5] = assay: Antiandrogenic activity in sc dosed male castrated Wistar rat assessed as inhibition of testosterone propionate-induced ventral prostate gland organ effect; type: functional, organism-based
Rattus norvegicus [6] = assay: Antiandrogenic activity in sc dosed male castrated Wistar rat assessed as inhibition of testosterone propionate-induced seminal vesicles gland organ effect; type: functional, organism-based
Rattus norvegicus [7] = assay: Antiandrogenic activity in sc dosed male castrated Wistar rat assessed as inhibition of testosterone propionate-induced preputial gland organ effect; type: functional, organism-based
Rattus norvegicus [8] = assay: Glucocorticoid activity in male castrated Wistar rat assessed as reduction in adrenal weight at 100 mg/kg, sc; type: functional, organism-based
Rattus norvegicus [9] = assay: Glucocorticoid activity in male castrated Wistar rat assessed as reduction in thymus weight at 100 mg/kg, sc; type: functional, organism-based
[10] = Drug metabolism in rat plasma assessed as compound remaining after 0 mins by HPLC analysis; type: ADME, cell-free; conditions: read-out: Drug metabolism
[11] = Drug metabolism in rat plasma assessed as compound remaining after 5 mins by HPLC analysis; type: ADME, cell-free; conditions: read-out: Drug metabolism
[12] = Drug metabolism in rat plasma assessed as compound remaining after 15 mins by HPLC analysis; type: ADME, cell-free; conditions: read-out: Drug metabolism
[13] = Drug metabolism in rat plasma assessed as compound remaining after 30 mins by HPLC analysis; type: ADME, cell-free; conditions: read-out: Drug metabolism
[14] = Drug metabolism in rat plasma assessed as compound remaining after 1 hr by HPLC analysis; type: ADME, cell-free; conditions: read-out: Drug metabolism
[15] = Drug metabolism in rat plasma assessed as compound remaining after 2 hrs by HPLC analysis; type: ADME, cell-free; conditions: read-out: Drug metabolism
[16] = Drug metabolism in rat plasma assessed as compound remaining after 4 hrs by HPLC analysis; type: ADME, cell-free; conditions: read-out: Drug metabolism
[17] = Drug metabolism in rat plasma assessed as compound remaining after 8 hrs by HPLC analysis; type: ADME, cell-free; conditions: read-out: Drug metabolism
[18] = Drug metabolism in human plasma assessed as compound remaining after 30 mins by HPLC analysis; type: ADME, cell-free; conditions: read-out: Drug metabolism
[19] = Drug metabolism in human plasma assessed as compound remaining after 1 hr by HPLC analysis; type: ADME, cell-free; conditions: read-out: Drug metabolism
[20] = Drug metabolism in human plasma assessed as compound remaining after 2 hrs by HPLC analysis; type: ADME, cell-free; conditions: read-out: Drug metabolism
[21] = Drug metabolism in human plasma assessed as compound remaining after 4 hrs by HPLC analysis; type: ADME, cell-free; conditions: read-out: Drug metabolism
[22] = Drug metabolism in human plasma assessed as compound remaining after 6 hrs by HPLC analysis; type: ADME, cell-free; conditions: read-out: Drug metabolism
[23] = Drug metabolism in human plasma assessed as compound remaining after 0 mins by HPLC analysis; type: ADME, cell-free; conditions: read-out: Drug metabolism
[24] = Drug metabolism in rat skin homogenate assessed as compound remaining after 5 mins by HPLC analysis; type: ADME, tissue-based, Zone of skin; conditions: read-out: Drug metabolism
[25] = Drug metabolism in rat skin homogenate assessed as compound remaining after 15 mins by HPLC analysis; type: ADME, tissue-based, Zone of skin; conditions: read-out: Drug metabolism
[26] = Drug metabolism in rat skin homogenate assessed as compound remaining after 30 mins by HPLC analysis; type: ADME, tissue-based, Zone of skin; conditions: read-out: Drug metabolism
[27] = Drug metabolism in rat skin homogenate assessed as compound remaining after 1 hr by HPLC analysis; type: ADME, tissue-based, Zone of skin; conditions: read-out: Drug metabolism
[28] = Drug metabolism in rat skin homogenate assessed as compound remaining after 2 hrs by HPLC analysis; type: ADME, tissue-based, Zone of skin; conditions: read-out: Drug metabolism
[29] = Drug metabolism in rat skin homogenate assessed as compound remaining after 4 hrs by HPLC analysis; type: ADME, tissue-based, Zone of skin; conditions: read-out: Drug metabolism
[30] = Drug metabolism in rat skin homogenate assessed as compound remaining after 8 hrs by HPLC analysis; type: ADME, tissue-based, Zone of skin; conditions: read-out: Drug metabolism
[31] = Drug metabolism in rat skin homogenate assessed as compound remaining after 16 hrs by HPLC analysis; type: ADME, tissue-based, Zone of skin; conditions: read-out: Drug metabolism
[32] = Drug metabolism in rat skin homogenate assessed as compound remaining after 24 hrs by HPLC analysis; type: ADME, tissue-based, Zone of skin; conditions: read-out: Drug metabolism
[33] = Drug metabolism in rat skin homogenate assessed as compound remaining after 0 mins by HPLC analysis; type: ADME, tissue-based, Zone of skin; conditions: read-out: Drug metabolism

Q: Which “inhibition (INH)” value (Syrian golden hamster [1]) does the source give for `CCC(=O)OCC(=O)[C@@]1(O)CC[C@H]2[C@@H]3CCC4=CC(=O)CC[C@]4(C)[C@H]3CC[C@@]21C` here?
A: 29%

Q: What about the Drug metabolism (Plasma) of the same molecule?
A: metabolite_detected

Q: For `CCC(=O)OCC(=O)[C@@]1(OC(=O)CC)CC[C@H]2[C@@H]3CCC4=CC(=O)CC[C@]4(C)[C@H]3CC[C@@]21C`, which “inhibition (INH)” value (Syrian golden hamster [1]) is on record?
A: 57%

Q: With `CCCC(=O)O[C@]1(C(=O)CO)CC[C@H]2[C@@H]3CCC4=CC(=O)CC[C@]4(C)C3=CC[C@@]21C` as the molecule, how does the “inhibition (INH)” value (Syrian golden hamster [1]) read?
A: 85%

Q: With `CCC(=O)O[C@]1(C(=O)CO)CC[C@H]2[C@@H]3CCC4=CC(=O)CC[C@]4(C)[C@H]3CC[C@@]21C` [CLASCOTERONE] as the molecule, how does the “inhibition (INH)” value (Syrian golden hamster [1]) read?
A: 84%

Q: And the “inhibition (INH)” value (Syrian golden hamster [2])?
A: 40%

Q: And the “inhibition (INH)” value (Syrian golden hamster [3])?
A: 78%

Q: And the inhibition [4]?
A: inactive

Q: And the IC50 (Androgen receptor)?
A: 50 nM

Q: What about the Ki (Androgen receptor) of the same molecule?
A: 40 nM

Q: And the Activity (Rattus norvegicus [5])?
A: inactive

Q: And the Activity (Rattus norvegicus [6])?
A: inactive

Q: And the Activity (Rattus norvegicus [7])?
A: inactive

Q: What about the inhibition (Rattus norvegicus [8]) of the same molecule?
A: Active

Q: What about the inhibition (Rattus norvegicus [9]) of the same molecule?
A: Active

Q: And the remaining at 0 h [10]?
A: 100%

Q: And the remaining at 5 min [11]?
A: 90%

Q: What about the remaining at 0.25 h [12] of the same molecule?
A: 90%

Q: And the remaining at 0.5 h [13]?
A: 80%

Q: And the remaining at 1 h [14]?
A: 60%

Q: And the remaining at 2 h [15]?
A: 50%

Q: And the remaining at 4 h [16]?
A: 20%

Q: And the remaining at 8 h [17]?
A: 0%

Q: What about the remaining at 0.5 h [18] of the same molecule?
A: 93.2%

Q: And the remaining at 1 h [19]?
A: 85.2%

Q: What about the remaining at 2 h [20] of the same molecule?
A: 67.2%

Q: And the remaining at 4 h [21]?
A: 30.3%

Q: And the remaining at 6 h [22]?
A: 11.3%

Q: And the remaining at 0 h [23]?
A: 99.6%

Q: And the remaining at 5 min [24]?
A: 99%

Q: And the remaining at 0.25 h [25]?
A: 99%

Q: And the remaining at 0.5 h [26]?
A: 98.5%

Q: What about the remaining at 1 h [27] of the same molecule?
A: 89.5%

Q: What about the remaining at 2 h [28] of the same molecule?
A: 69.5%

Q: And the remaining at 4 h [29]?
A: 59.5%

Q: What about the remaining at 8 h [30] of the same molecule?
A: 49.5%

Q: And the remaining at 16 h [31]?
A: 44.8%

Q: And the remaining at 24 h [32]?
A: 44.8%

Q: And the remaining at 0 h [33]?
A: 99%

Q: With `C[C@]12CCC(=O)C=C1CC[C@@H]1[C@@H]2CC[C@@]2(C)[C@H]1CC[C@]2(O)C(=O)CO` [CORTODOXONE] as the molecule, how does the “inhibition (INH)” value (Syrian golden hamster [1]) read?
A: 0%

Q: With `CC(=O)O[C@]1(C(C)=O)CC[C@H]2[C@@H]3C=C(Cl)C4=CC(=O)[C@@H]5C[C@@H]5[C@]4(C)[C@H]3CC[C@@]21C` [CYPROTERONE ACETATE] as the molecule, how does the “inhibition (INH)” value (Syrian golden hamster [1]) read?
A: 93%

Q: For `CC(C)(C)NC(=O)[C@H]1CC[C@H]2[C@@H]3CC[C@H]4NC(=O)C=C[C@]4(C)[C@H]3CC[C@]12C` [FINASTERIDE], which “inhibition (INH)” value (Syrian golden hamster [1]) is on record?
A: 71%
